Results taken from patent US9770026B2, “Substituted pyrimidine compound and uses thereof” (Shenyang Sinochem Agrochemicals R&D Co., Ltd., priority 2012, dated 2017).

Columns and labels:
corn rust = assay: protectant activity in vivo against corn rust
wheat powdery mildew = assay: protectant activity in vivo against wheat powdery mildew
Diamond back moth = assay: insecticidal activity against diamond back moth, airbrush spray; format: in vivo
Procedure, shortened: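 Airbrush leaf-disc spray test: both faces of 2 cm cabbage discs received 0.5 ml of test solution at 0.7 kg/cm^2. Solutions were made in acetone:methanol (1:1) and brought to concentration with 0.1% Tween 80 in water. Ten second-instar larvae per disc, triplicates, were held at 25° C and 60˜70% R.H., with mortality recorded at 72 hrs.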

armyworm = assay: bioactivity test against armyworm, airbrush spray; format: in vivo
[1] = test system: Green peach aphids (Myzus Persicae Sulzer); assay: bioactivity test against green peach aphid, airbrush foliar spray; format: in vivo; conditions: for Insecticidal activity against peach aphid (%): contrastive test
Procedure, shortened: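 Death rate was scored at 48 hrs, held at 25±1 C and 60±5% RH, following airbrush foliar spray (0.5 mL, 10 psi) onto cabbage leaf discs bearing about 15-30 aphids. Test solutions: compound dissolved in 1:1 acetone:methanol, brought to concentration with 0.1% tween 80 water.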

carmine spider mite = assay: bioactivity test against carmine spider mite, airbrush spray; format: in vivo
Procedure, shortened: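 Broadbean seedlings infested with adult mites were sprayed with compound (acetone/methanol stock diluted in 0.1% Tween 80 water) by airbrush at 0.7 kg/cm^2, 0.5 ml. Three replicates were run. Mortality was scored after 72 hrs.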

cucumber downy mildew = assay: protectant activity in vivo against cucumber downy mildew; conditions: for pest or weed control at 25 ppm: read-out: protectant activity against cucumber downy mildew in vivo, 25 ppm; for pest or weed control at 100 ppm: read-out: protectant activity against cucumber downy mildew in vivo, 100 ppm; for pest or weed control at 400 ppm: read-out: protectant activity against cucumber downy mildew in vivo, 400 ppm
[2] = 600 ppm, mortality after 72 hrs
[3] = 10 ppm, death rate after 48 hrs
[4] = 100 ppm, death rate after 48 hrs
[5] = 600 ppm, death rate after 48 hrs
[6] = 100 ppm, mortality after 72 hrs

Structure (SMILES): CCc1ncnc(NCCc2ccc(Oc3ncc(Cl)cc3Cl)cc2)c1Cl [Compound I-583]
- pest or weed control at 25 ppm (corn rust; Zea mays, 168 h, read-out: protectant activity against corn rust in vivo, 25 ppm): 100%
- pest or weed control at 100 ppm (corn rust; Zea mays, 168 h, read-out: protectant activity against corn rust in vivo, 100 ppm): 100%
- pest or weed control at 400 ppm (corn rust; Zea mays, 168 h, read-out: protectant activity against corn rust in vivo, 400 ppm): 100%
- pest or weed control at 100 ppm (wheat powdery mildew; Triticum aestivum, 168 h, read-out: protectant activity against wheat powdery mildew in vivo, 100 ppm): 80 to 99%
- pest or weed control at 400 ppm (wheat powdery mildew; Triticum aestivum, 168 h, read-out: protectant activity against wheat powdery mildew in vivo, 400 ppm): 80 to 99%
- pest or weed control at 600 ppm (Diamond back moth; 72 h, 600 ppm, mortality after 72 hrs, read-out: control (test results against diamond back moth)): 100%
- pest or weed control at 600 ppm (armyworm; 72 h, 600 ppm, mortality after 72 h): 100%
- pest or weed control at 10 ppm ([1]; Myzus persicae, foliar, 48 h, 10 ppm, death rate after 48 hrs): 80 to 99%
- pest or weed control at 100 ppm ([1]; Myzus persicae, foliar, 48 h, 100 ppm, death rate after 48 hrs): 100%
- pest or weed control at 600 ppm ([1]; Myzus persicae, foliar, 48 h, 600 ppm, death rate after 48 hrs): 100%
- pest or weed control at 600 ppm (carmine spider mite; Tetranychus cinnabarinus, 72 h, 600 ppm, mortality after 72 hrs): 100%
- pest or weed control at 25 ppm (cucumber downy mildew; Cucumis sativus, 168 h): 100%
- pest or weed control at 50 ppm (cucumber downy mildew; Cucumis sativus, 168 h, read-out: protectant activity against cucumber downy mildew in vivo, 50 ppm): 80 to 99%
- pest or weed control at 100 ppm (cucumber downy mildew; Cucumis sativus, 168 h): 100%
- pest or weed control at 400 ppm (cucumber downy mildew; Cucumis sativus, 168 h): 100%

Structure (SMILES): Cc1ncnc(NCCc2ccc(Oc3ccc(C(F)(F)F)cn3)cc2)c1Cl [Compound I-6732]
- protectant activity against corn rust in vivo (corn rust; 100 ppm): 100%
- protectant activity against corn rust in vivo (corn rust; 400 ppm): 100%
- pest or weed control at 6.25 ppm (corn rust; Zea mays, 168 h, read-out: protectant activity against corn rust in vivo, 6.25 ppm): 80 to 99%
- protectant activity against wheat powdery mildew in vivo (wheat powdery mildew; 400 ppm): 100%
- control (test results against diamond back moth) (Diamond back moth; [2]): 100%
- control (test results against armyworm) (armyworm; 600 ppm, mortality after 72 h): 100%
- control (test results against green peach aphid) [1, 3]: 100%
- control (test results against green peach aphid) [1, 4]: 100%
- control (test results against green peach aphid) [1, 5]: 100%
- control against carmine spider mite (carmine spider mite; [2]): 100%
- pest or weed control at 100 ppm (carmine spider mite; Tetranychus cinnabarinus, 72 h, 100 ppm, mortality after 72 hrs): 100%
- protectant activity against cucumber downy mildew in vivo (cucumber downy mildew; 25 ppm): 100%
- protectant activity against cucumber downy mildew in vivo (cucumber downy mildew; 100 ppm): 100%
- protectant activity against cucumber downy mildew in vivo (cucumber downy mildew; 400 ppm): 100%

Structure (SMILES): CCc1ncnc(NCCc2ccc(Oc3ccc(C(F)(F)F)cn3)cc2)c1Cl [Compound I-6740]
- protectant activity against corn rust in vivo (corn rust; 100 ppm): 100%
- protectant activity against corn rust in vivo (corn rust; 400 ppm): 100%
- protectant activity against wheat powdery mildew in vivo (wheat powdery mildew; 25 ppm): 100%
- protectant activity against wheat powdery mildew in vivo (wheat powdery mildew; 100 ppm): 100%
- protectant activity against wheat powdery mildew in vivo (wheat powdery mildew; 400 ppm): 100%
- control (test results against diamond back moth) (Diamond back moth; [6]): 100%
- control (test results against diamond back moth) (Diamond back moth; [2]): 100%
- control (test results against armyworm) (armyworm; 100 ppm, mortality after 72 h): 100%
- control (test results against armyworm) (armyworm; 600 ppm, mortality after 72 h): 100%
- control (test results against green peach aphid) ([1]; 5 ppm, death rate after 48 hrs): 100%
- control (test results against green peach aphid) [1, 3]: 100%
- control (test results against green peach aphid) [1, 4]: 100%
- control (test results against green peach aphid) [1, 5]: 100%
- Insecticidal activity against carmine spider mite (% ) (carmine spider mite; 10 mg/L, contrastive test): 85%
- Insecticidal activity against carmine spider mite (% ) (carmine spider mite; 100 mg/L, contrastive test): 100%
- Insecticidal activity against carmine spider mite (% ) (carmine spider mite; 600 mg/L, contrastive test): 100%
- control against carmine spider mite (carmine spider mite; [6]): 100%
- control against carmine spider mite (carmine spider mite; [2]): 100%
- pest or weed control at 10 ppm (carmine spider mite; Tetranychus cinnabarinus, 72 h, 10 ppm, mortality after 72 hrs): 80 to 99%
- pest or weed control at 100 ppm (cucumber downy mildew; Cucumis sativus, 168 h): 100%
- pest or weed control at 400 ppm (cucumber downy mildew; Cucumis sativus, 168 h): 100%

Structure (SMILES): CCc1ncnc(NCCc2ccc(Oc3ccc(C(F)(F)F)cn3)cc2)c1Cl [Compound I-6765]
- protectant activity against corn rust in vivo (corn rust; 100 ppm): 100%
- protectant activity against corn rust in vivo (corn rust; 400 ppm): 100%
- protectant activity against wheat powdery mildew in vivo (wheat powdery mildew; 6.25 ppm): 100%
- protectant activity against wheat powdery mildew in vivo (wheat powdery mildew; 100 ppm): 100%
- protectant activity against wheat powdery mildew in vivo (wheat powdery mildew; 400 ppm): 100%
- pest or weed control at 6.25 µg/mL (wheat powdery mildew; Triticum aestivum, 168 h, read-out: control effect against wheat powdery mildew (%), 6.25 mg/L, protectant activity): 100%
- pest or weed control at 25 µg/mL (wheat powdery mildew; Triticum aestivum, 168 h, read-out: control effect against wheat powdery mildew (%), 25 mg/L, protectant activity): 100%
- pest or weed control at 100 µg/mL (wheat powdery mildew; Triticum aestivum, 168 h, read-out: control effect against wheat powdery mildew (%), 100 mg/L, protectant activity): 100%
- pest or weed control at 400 µg/mL (wheat powdery mildew; Triticum aestivum, 168 h, read-out: control effect against wheat powdery mildew (%), 400 mg/L, protectant activity): 100%
- pest or weed control at 25 ppm (wheat powdery mildew; Triticum aestivum, 168 h, read-out: protectant activity against wheat powdery mildew in vivo, 25 ppm): 100%
- control (test results against diamond back moth) (Diamond back moth; [6]): 100%
- control (test results against diamond back moth) (Diamond back moth; [2]): 100%
- control (test results against armyworm) (armyworm; 600 ppm, mortality after 72 h): 100%
- pest or weed control at 100 ppm (armyworm; 72 h, 100 ppm, mortality after 72 h): 100%
- Insecticidal activity against peach aphid (%) ([1]; 1.25 mg/L): 84%
- Insecticidal activity against peach aphid (%) ([1]; 2.5 mg/L): 100%
- Insecticidal activity against peach aphid (%) ([1]; 5 mg/L): 100%
- Insecticidal activity against peach aphid (%) ([1]; 10 mg/L): 100%
- Insecticidal activity against peach aphid (%) ([1]; 100 mg/L): 100%
- Insecticidal activity against peach aphid (%) ([1]; 600 mg/L): 100%
- control (test results against green peach aphid) ([1]; 2.5 ppm, death rate after 48 hrs): 100%
- control (test results against green peach aphid) ([1]; 5 ppm, death rate after 48 hrs): 100%
- control (test results against green peach aphid) [1, 3]: 100%
- control (test results against green peach aphid) [1, 4]: 100%
- control (test results against green peach aphid) [1, 5]: 100%
- Insecticidal activity against carmine spider mite (% ) (carmine spider mite; 10 mg/L, contrastive test): 100%
- Insecticidal activity against carmine spider mite (% ) (carmine spider mite; 100 mg/L, contrastive test): 100%
- Insecticidal activity against carmine spider mite (% ) (carmine spider mite; 600 mg/L, contrastive test): 100%
- control against carmine spider mite (carmine spider mite; 10 ppm, mortality after 72 hrs): 100%
- control against carmine spider mite (carmine spider mite; [6]): 100%
- control against carmine spider mite (carmine spider mite; [2]): 100%
- protectant activity against cucumber downy mildew in vivo (cucumber downy mildew; 50 ppm): 100%
- protectant activity against cucumber downy mildew in vivo (cucumber downy mildew; 100 ppm): 100%
- protectant activity against cucumber downy mildew in vivo (cucumber downy mildew; 400 ppm): 100%
- pest or weed control at 6.25 ppm (cucumber downy mildew; Cucumis sativus, 168 h, read-out: protectant activity against cucumber downy mildew in vivo, 6.25 ppm): 80 to 99%
- pest or weed control at 12.5 ppm (cucumber downy mildew; Cucumis sativus, 168 h, read-out: protectant activity against cucumber downy mildew in vivo, 12.5 ppm): 80 to 99%
- pest or weed control at 25 ppm (cucumber downy mildew; Cucumis sativus, 168 h): 100%

Structure (SMILES): Cc1ncnc(NCCc2ccc(Oc3ccc(C#N)cc3F)cc2)c1Cl [II-204]
- protectant activity against corn rust in vivo (corn rust; 25 ppm): 100%
- protectant activity against corn rust in vivo (corn rust; 100 ppm): 100%
- protectant activity against corn rust in vivo (corn rust; 400 ppm): 100%
- control effect against wheat powdery mildew (%) (wheat powdery mildew; 6.25 mg/L, protectant activity): 100%
- control effect against wheat powdery mildew (%) (wheat powdery mildew; 25 mg/L, protectant activity): 100%
- control effect against wheat powdery mildew (%) (wheat powdery mildew; 100 mg/L, protectant activity): 100%
- control effect against wheat powdery mildew (%) (wheat powdery mildew; 400 mg/L, protectant activity): 100%
- protectant activity against wheat powdery mildew in vivo (wheat powdery mildew; 6.25 ppm): 100%
- protectant activity against wheat powdery mildew in vivo (wheat powdery mildew; 25 ppm): 100%
- protectant activity against wheat powdery mildew in vivo (wheat powdery mildew; 100 ppm): 100%
- protectant activity against wheat powdery mildew in vivo (wheat powdery mildew; 400 ppm): 100%
- Insecticidal activity against diamond back moth (%) (Diamond back moth; 10 mg/L): 20%
- Insecticidal activity against diamond back moth (%) (Diamond back moth; 100 mg/L): 100%
- Insecticidal activity against diamond back moth (%) (Diamond back moth; 600 mg/L): 100%
- control (test results against diamond back moth) (Diamond back moth; [6]): 100%
- control (test results against diamond back moth) (Diamond back moth; [2]): 100%
- Insecticidal activity against armyworm (%) (armyworm; 10 mg/L): 47%
- Insecticidal activity against armyworm (%) (armyworm; 100 mg/L): 100%
- Insecticidal activity against armyworm (%) (armyworm; 600 mg/L): 100%
- control (test results against armyworm) (armyworm; 100 ppm, mortality after 72 h): 100%
- control (test results against armyworm) (armyworm; 600 ppm, mortality after 72 h): 100%
- Insecticidal activity against peach aphid (%) ([1]; 1.25 mg/L): 60%
- Insecticidal activity against peach aphid (%) ([1]; 2.5 mg/L): 97%
- Insecticidal activity against peach aphid (%) ([1]; 5 mg/L): 100%
- Insecticidal activity against peach aphid (%) ([1]; 10 mg/L): 100%
- Insecticidal activity against peach aphid (%) ([1]; 100 mg/L): 100%
- Insecticidal activity against peach aphid (%) ([1]; 600 mg/L): 100%
- control (test results against green peach aphid) ([1]; 5 ppm, death rate after 48 hrs): 100%
- control (test results against green peach aphid) [1, 3]: 100%
- control (test results against green peach aphid) [1, 4]: 100%
- control (test results against green peach aphid) [1, 5]: 100%
- Insecticidal activity against carmine spider mite (% ) (carmine spider mite; 2.5 mg/L): 60%
- Insecticidal activity against carmine spider mite (% ) (carmine spider mite; 5 mg/L): 80%
- Insecticidal activity against carmine spider mite (% ) (carmine spider mite; 10 mg/L, contrastive test): 100%
- Insecticidal activity against carmine spider mite (% ) (carmine spider mite; 100 mg/L, contrastive test): 100%
- Insecticidal activity against carmine spider mite (% ) (carmine spider mite; 600 mg/L, contrastive test): 100%
- control against carmine spider mite (carmine spider mite; 10 ppm, mortality after 72 hrs): 100%
- control against carmine spider mite (carmine spider mite; [6]): 100%
- control against carmine spider mite (carmine spider mite; [2]): 100%
- protectant activity against cucumber downy mildew in vivo (cucumber downy mildew; 25 ppm): 100%
- protectant activity against cucumber downy mildew in vivo (cucumber downy mildew; 50 ppm): 100%
- protectant activity against cucumber downy mildew in vivo (cucumber downy mildew; 100 ppm): 100%
- protectant activity against cucumber downy mildew in vivo (cucumber downy mildew; 400 ppm): 100%
